81 compounds from article PMC12040169 (PLOS Biology, 2025) can be followed below.

Structures are written as SMILES.

A short description of the data set: in vitro. As to conditions: human, hela cells, % viability.

The term viability denotes a read-out of living cells in per cent, often relative to untreated cells. For the compound `O=C(COc1cccc2ccccc12)N/N=C/c1ccco1` [CBK086853], the viability at 28.5 h, 10 µM was found to be 103%. Still for that read-out and setting: to `CSc1ncc(Cl)c(C(=O)Nc2sc3c(c2C(=O)NCC2CCCO2)CCC3)n1` (stereo not drawn) [CBK268959] belongs 95%; to `CC(C)(C)OC(=O)N1CCC(N(CCCO)Cc2ccccn2)CC1` [CBK304246], 95.1%. Take `COc1cccc(-n2cnc3cccc(N)c32)c1` [CBK022114]: the viability at 28.5 h, 10 µM was 94.9%.

For `Cc1cc(CCCC(=O)N2CCCC(c3ccc(Nc4ncccn4)cn3)C2)ccc1F` (stereo not drawn) [CBK286003], the viability at 28.5 h, 10 µM is 78.6%.

For `CC(C)(C)OC(=O)N1Cc2c(-c3noc(C4CC4)n3)ncn2-c2ccc(Cl)cc21` [CBK007792], the viability at 28.5 h, 10 µM was 90.2%. The same measure, in the same setting: to `COc1ccccc1/C=C/CN(C)CCN(C)C` [CBK261888] belongs 88.5%; to `NC(=O)c1ccc(-c2nccnc2NCCc2ccncc2)cc1` [CBK036644], 97.1%. The same measure, in the same setting: in the case of `Cc1cc(C(=O)NC2CCCc3c2cnn3-c2ccc(F)cc2)on1` (stereo not drawn) [CBK282310] it was 108%. Still for that read-out and setting: in the case of `C/C(=C\c1ccccc1)CN1CCC(C(=O)N2CCN(Cc3ccc4c(c3)OCO4)CC2)CC1` [CBK264327] it was 94.1%; in that of `O=C(O)CCc1ccc(-c2ccc(F)cc2)n1CC1CCCO1` (stereo not drawn) [CBK268988], 86.5%; in that of `O=C(NCCc1c[nH]c2ccccc12)c1nn(-c2ncccn2)c2ccccc12` [CBK048496], 77.7%. As for `CC(=O)N[C@H](C(=O)N1CC[C@@H]2NC(=O)[C@@H](Cc3ccccc3)NC(=O)C3(C/C=C/C[C@@H]2C1)CCOCC3)[C@@H](C)O` [CBK292186], the viability at 28.5 h, 10 µM stood at 96.9%. On the same count and under the same terms, to `COC(=O)c1cc(C#N)c(=O)n(CC(=O)N(C)Cc2ccsc2)c1` [CBK297788] belongs 115%; to `C[C@H](Nc1cncc(-c2cccs2)n1)c1ccccc1` [CBK065719], 93.5%; to `O=C(/C=C/c1ccco1)NC(=S)Nc1ccccc1[N+](=O)[O-]` [CBK264375], 117%. The same measure, in the same setting: to `N/C(=N\OC(=O)COc1ccc2ccccc2c1)c1ccncc1` [CBK263737] belongs 89.1%; to `Cc1cc2ccccc2c(=O)n1CCO` [CBK015621], 102%. On the same count and under the same terms, in the case of `O=S(=O)(NCc1cccnc1)c1ccc(Cl)c(Cl)c1Cl` [CBK264032] it was 91.1%; in that of `CC(C)NC(=O)N1Cc2nc[nH]c2C[C@H]1c1nc(-c2ccc(F)c(Cl)c2)no1` [CBK288999], 86.6%; in that of `O=C1CC[C@@H](NCc2ccsc2)[C@H](c2cc(F)cc(F)c2)N1` [CBK282910], 102%. On to `CC(C)C(=O)N[C@@H](C)Cn1nc(-c2cccs2)oc1=O` [CBK284335], for which the viability at 28.5 h, 10 µM stood at 88.3%. Same read-out and setting: in the case of `COc1cc(C(=O)N2CCN(C(=O)c3ccco3)CC2)cc(OC)c1OC` [CBK144476] it was 113%; in that of `C=CCNC(=O)C1C2CCC3(CC(=O)c4cc(Cl)ccc4O3)C21` (stereo not drawn) [CBK284873], 86.3%; in that of `Cn1cc(CC(=O)N2CCN(c3ccccc3)CC2)c2ccccc21` [CBK200168], 95.8%. On the same count and under the same terms, to `O=C(NC(c1ccccc1)c1cccnc1)C1CCN(C(=O)NCCc2cccs2)CC1` (stereo not drawn) [CBK060313] belongs 78.3%; to `Cc1cc(NC(=O)c2ccco2)c2ccccc2n1` [CBK116258], 106%; to `CCC12CN3CCN(CC(C3)/C1=N\O)C2` [CBK263022], 85.9%. Still for that read-out and setting: to `CCNC(=O)c1cnc(-c2ccc(Cl)cc2)c(-c2cccnc2)c1` [CBK037584] belongs 103%; to `CC(C)NC(=O)c1cc(C2CCN(C(=O)CCCc3ccc(F)cc3)C2)nc2ccccc12` (stereo not drawn) [CBK285921], 95.2%.

Take `CSc1cc(C)c2c(c1)COC1(CCN(C(=O)Nc3cccs3)CC1)O2` [CBK060795]: the viability at 28.5 h, 10 µM (bulk resorufin, single well) was 90.6%.

Regarding `Cc1nn(C)c2ncc(C(=O)N(C)Cc3ccc(C(C)(C)C)cc3)cc12` [CBK305657], the viability at 28.5 h, 10 µM turned out to be 99.9%. Still for that read-out and setting: to `Cc1cc(C(=O)N2CCC3(CCN(Cc4ccccc4)C3)C2)n[nH]1` (stereo not drawn) [CBK137092T] belongs 93.4%. Still for that read-out and setting: in the case of `C[C@]12CN(C3CCSC3)C[C@H]1C(=O)Nc1ccccc1C(=O)N2` (stereo partly drawn) [CBK284788] it was 90.8%. For `COc1ccc2c(c1)CC(=O)NC21CCN(C(=O)CCCC(=O)O)CC1` [CBK047208], the viability at 28.5 h, 10 µM turned out to be 90.3%. As for `O=C(N[C@H]1CO[C@H]2[C@@H]1OC[C@@H]2n1nnnc1-c1ccccc1)c1ccccc1` [CBK289482], the viability at 28.5 h, 10 µM came to 120%.

With `Cn1nc(CN(Cc2ccccc2C(F)(F)F)C2CC2)[nH]c1=O` [CBK306391], the viability at 28.5 h, 10 µM is 98.2%. Same read-out and setting: to `CC(=O)Nc1ccc(S(=O)(=O)NCCSc2ccccn2)cc1` [CBK263576] belongs 90.1%. On the same count and under the same terms, to `CC(C)Nc1cncc(Sc2ccccc2O)n1` [CBK091438] belongs 88%; to `COCCCNC(NC(=O)c1ccc(C)cc1)C(Cl)(Cl)Cl` (stereo not drawn) [CBK263087], 107%; to `Cc1ccc(NC(=O)CCC(=O)N/N=C/c2ccco2)c(C)c1` [CBK263885], 96.4%. Turning to `O=C(c1ccccn1)N1CCCC(c2cc3ccccc3cn2)C1` (stereo not drawn) [CBK282832], the viability at 28.5 h, 10 µM is 96.3%.

Turning to `CC1(C(=O)O)CCC(C(=O)Nc2ccc(F)cc2)C1(C)C` (stereo not drawn) [CBK286953], the viability at 28.5 h, 10 µM is 98.8%.

As for `O=C(CSc1nnc(SCc2cccc3ccccc23)s1)c1ccc(F)cc1` [CBK266218], the viability at 28.5 h, 10 µM was 98.9%. Still for that read-out and setting: to `Nc1ncnc2c1[nH]c(=O)n2[C@H]1C[C@@H](O)[C@@H](CO)O1` [CBK201284] belongs 98.3%; to `COc1nccnc1-c1ccccc1Cl` [CBK107000], 100%; to `COc1ccc(CN(CCCN2CCOCC2)C(=O)NCc2ccc(C#N)cc2)cc1OC` [CBK159125], 89%. In the case of `Cc1cc(=O)oc2cc(SCc3ccc(Cl)s3)ccc12` [CBK002898], the viability at 28.5 h, 10 µM stood at 89.5%. For `O=C1NC/C=C/CC2(CCN(C(=O)CCc3cccnc3)CC2)C(=O)NCCOc2ccccc21` [CBK292007], the viability at 28.5 h, 10 µM was determined as 88.3%. As to `CCCCCN1CCn2nc(CNc3cnccn3)cc2C1` [CBK306713], the viability at 28.5 h, 10 µM was determined as 77.2%. `CC(c1cccs1)N(C)C(=O)NC1CCCc2c1cnn2CCO` (stereo not drawn) [CBK306289]: the viability at 28.5 h, 10 µM was 113%.

`CCC1(O)C(C)C(c2ccc(Cl)cc2)NC(c2ccc(Cl)cc2)C1C` (stereo not drawn) [CBK025376C]: the viability at 28.5 h, 10 µM amounted to 124%.

With `COc1ccc(CCNC(=O)N2CCC(C(=O)O)CC2)cc1` [CBK156073], the viability at 28.5 h, 10 µM came to 75.6%. In the case of `Cc1nn(CCCC(=O)O)c(C)c1I` [CBK269796], the viability at 28.5 h, 10 µM was determined as 91.3%.

On to `CCN1CCN(C(=O)CN(Cc2ccccc2)S(C)(=O)=O)CC1` [CBK266735], for which the viability at 28.5 h, 10 µM came out at 94.6%. Same read-out and setting: to `COc1ccc(NS(=O)(=O)c2cc(C(=O)O)sc2Br)cn1` [CBK297943] belongs 81.8%; to `Cc1cc(C(=O)NCCCn2ccnc2)no1` [CBK268145], 103%.

Take `CCOC(=O)C1CCN(Cn2nc(-c3cccs3)oc2=S)CC1` [CBK295165]: the viability at 28.5 h, 10 µM stood at 85.9%. Consider `CSc1nccc(N2CCC(NCCCn3ccnn3)CC2)n1` [CBK307076], for which the viability at 28.5 h, 10 µM was found to be 92.7%. The same measure, in the same setting: to `CCN(Cc1ccccc1)C(=O)Nc1ccc2[nH]ccc2c1` [CBK155229] belongs 95.2%; to `CCc1c(C(=O)NC(C)c2cccc(Cl)c2)cnc2cc(O)nn12` (stereo not drawn) [CBK291243], 95%. On the same count and under the same terms, to `Cc1nc2c(c(=O)c3ccccc3n2C)c(=O)n1Cc1ccco1` [CBK287776] belongs 100%. Same read-out and setting: in the case of `CCOCCCNc1c2c(c(C#N)c3nc4ccccc4n13)CCC2` [CBK263151] it was 93.5%; in that of `CN(C)c1ncccc1OC1CCN(c2ccnc(C3CC3)n2)C1` (stereo not drawn) [CBK306182], 56.3%. On to `COC(=O)c1c(NC(=S)NCc2ccc(S(N)(=O)=O)cc2)sc2c1CCC(C)C2` (stereo not drawn) [CBK267039], for which the viability at 28.5 h, 10 µM came to 97.6%. On to `Cn1ccc(NC(=O)c2cccc(S(=O)(=O)N3CCCC3)c2)n1` [CBK306032], for which the viability at 28.5 h, 10 µM was found to be 104%. Still for that read-out and setting: to `O=C(Cc1ccc(Cl)cc1Cl)Nc1ccc(-c2nnc3n2CCCCC3)cc1` [CBK296949] belongs 94.8%. The same measure, in the same setting: to `O=C(CSCc1ccc([N+](=O)[O-])cc1)Nc1ccc2c(c1)OCO2` [CBK264031] belongs 95.7%; to `CC(C)[C@@H](Cn1nc(C2CC2)ccc1=O)NC(=O)c1ccco1` [CBK282321], 88.3%. With `Cc1ccc2c(c1)C(=O)NCC1(CCN(Cc3ccccc3)CC1)O2` [CBK285048], the viability at 28.5 h, 10 µM is 104%. On the same count and under the same terms, to `CCCc1cc(CNC(=O)C(C)n2ccnc2)on1` (stereo not drawn) [CBK282046] belongs 88.3%; to `COc1ccc(OCC(F)(F)F)c(C(=O)N2CCSCC2)c1` [CBK005950], 83.7%. Same read-out and setting: to `COCCCN(Cc1ccccn1)Cc1ccc(F)cc1F` [CBK282974] belongs 103%; to `O=C(Nc1nc2ccccc2s1)c1cnccn1` [CBK058664], 83.9%. The same measure, in the same setting: in the case of `CC(=O)c1ccc(-c2cnc(N)c(NCC(C)C)n2)s1` [CBK063764] it was 92.8%. Consider `CCCc1[nH]nc(O)c1CCc1c(F)cccc1Cl` [CBK081121], for which the viability at 28.5 h, 10 µM was found to be 93.8%. Same read-out and setting: to `Cc1ccnc(SCc2c(Cl)cccc2[N+](=O)[O-])n1` [CBK269632] belongs 86%; to `O=C(c1c[nH]c(=O)n(-c2ccc(F)cc2)c1=O)N1CCc2ccccc21` [CBK287554], 101%. The same measure, in the same setting: to `O=C1N[C@@H](Cc2ccc(F)cc2)C(=O)N2CCN(C(=O)c3cccc(F)c3)C[C@H]12` [CBK289600] belongs 111%; to `CCNC(=O)c1cncc(-c2[nH]nnc2-c2ccccc2)c1` [CBK160354], 96.9%; to `CC(C)CNCC1CC(C(=O)N2CCC(Cc3ccccc3)CC2)=NO1` (stereo not drawn) [CBK003718C], 89.7%.
